# Assay results from patent US4088642A (priority 1973, dated 1978).
# Tests used:
# [1] = Decomposition rate studies (half-life of azo and peroxide portions); format: physicochemical
# Description: The temperatures at which the polymerizations are carried out will depend upon the polymerization technique; the monomer, solvent or suspending medium; and the physical properties desired in the polymer; but most of all upon the azo-peroxide initiator and the method chosen to decompose the azo or peroxide portion of the initiator. Activation of the peroxide portion by amines, reducing agents, transition metal carboxylates, etc., can be carried out from below -20° C up to its normal decomposition temperature. The same is true for activation of the peroxide or azo portions by irradiation. Irradiation sources can be ultra-violet radiation, and in the presence of photosensitizers (e.g. certain azo dyes) visible light can also be used. The temperatures used for the thermal decompositions of the azo or peroxide portions will depend upon the thermal stability (half-life) of the azo or peroxide grouping in the molecule. These half-lives can be determined quantitatively for each azo-peroxide compound by conventional methods i.e. gas evolution, and iodometric, ultra-violet, or gas chromatographic analytical techniques to determine the rate of disappearance of each portion (azo or peroxide) at any given temperature. (Such half-life data were determined for the compounds made in Examples 1 to 5.) […]
# Its infrared spectrum was in agreement with the above structure showing both peresters and acid chloride carbonyl absorption bands. […] Apparently, the perester undergoes induced decomposition at this relatively high temperature.
# Storage stability = format: physicochemical
smiles,measurement,setting,value
"CC1(C#N)CCC(=O)OOC(=O)CCC(C)(C#N)N=N1 (stereo not shown) [Example 1, 6,9-Dimethyl-6,9-dicyano-Δ^7,1,2-dioxa-7,8-diazacyclododecan-3,12-dione]",t1/2 of azo portion,"[1]; 70° C, o-dichlorobenzene",≈ 236 minutes
same,t1/2 of diacyl peroxide portion,"[1]; 70° C, o-dichlorobenzene",≈ 99 minutes
same,storage stability,Storage stability,more than one month
"CC(C#N)(CCC(=O)OOC(C)(C)C)N=NC(C)(C#N)CCC(=O)OOC(C)(C)C (stereo not drawn) [Example 4, Di-t-butylperoxy Ester of cis-4,4'-Azobis(4-cyanovalericacid)]",t1/2 of azo portion,"[1]; 80° C, trichlorobenzene",≈ 92 minutes
same,t1/2 of perester portion,"[1]; 80° C, trichlorobenzene",≈ 319 minutes
same,change of infrared spectrum on standing (room temperature stability),Storage stability; two days at 21° C,not changed
"CC(C#N)(CCC(=O)Cl)N=NC(C)(C#N)CCC(=O)OOC(C)(C)C (stereo not drawn) [Example 5, mono-t-Butylperoxy Ester of the Diacid Chloride of trans-4,4'-Azobis(4-cyanovaleric acid)]",decomposition order of azo and perester linkages,"[1]; 90° C, dioctyl phthalate",decompose simultaneously
